Results taken from patent US11179452B2, “Antigen specific multi epitope vaccines” (priority 2006, dated 2021).
No end group written: not given here.

Legend:
Assay type in all cases: cell-based, human
PBL [1] = assay: ELISA of cytokine secretion by PBL stimulated once with peptide-pulsed DC
Description: (§1) Human PBMC were separated from buffy coat samples of naive donors using Ficoll UNI-SEPmaxi tube. Separated cells were suspended in RPMI medium supplemented with 10% FCS, L-Glutamine, Sodium Pyruvate, MEM-EAGLE non-essential amino-acids, HEPES and Gentamycin Sulphate (Bet-Haemek Industries, IL) and cultivated for 4 h at 37° C. in a culture dish (Corning 150 mm×25 mm). Adherent cells were collected and cultured for 7 days in serum free DCCM-1 medium supplemented with L-Glutamine, huIL-4 (1000 IU/ml) (Cytolab IL) and GM-CSF-80 ug/ml (Cytolab IL). On day seven floating cells were collected and loaded with 50 ug/ml of examined peptide for 18 h at 37° C.
(§2) Cytokine release was studied during the culture of stimulated T-cells. The evaluated samples were collected from the T cell culture medium on day 2, 3, and 5 and stored until use at −20° C.
(§3) […] of the selected capture antibody (e.g. anti-Hu IFN-Gamma, or anti-Hu TNF-alfa or anti IL-2) were added to each well at the final concentration of 5 μg/ml in PBS. Plates were incubated for 2 h at R.T. or over night at 4° C. Next, […] of blocking solution were added for an incubation of 2 h at R.T. […] of evaluated samples were added in duplicate into 2 wells for 2 hours at RT. After 2 h of incubation at R.T plates were washed λ4 times in washing solution. In the next step, a Biotin-conjugated detection antibody (relevant to coated antibody) was added at a final concentration of 10 μg/ml in total volume of 100 μl for 1 h at R.T. Finally, 100 μl/well working dilution (1:10000 in Blocker solution) of Streptavidin-HRP were added to each well and incubated for 1 h at R.T.
(§4) Plates were washed λ6 times with PBS-Tween (0.4%) and 100 μl/well of TMB/E Solution (CHEMICON, Catalog #ES001) was added. The plates were then exposed until blue color appeared in the wells of the positive control and no color was detected in the blank wells. To stop the color reaction, 50 μl/well of 10% of Sulfuric acid was added. The plates were counted in ELISA-Reader using a 450 nm filter.

PBL [2] = assay: Proliferation of PBL, DC indirect presentation (peptide-pulsed autologous DC)
Description: as §1
Proliferation analysis was conducted in three different methods. In all three methods, plates were cultured for 3-5 days under visual control and then 0.5 […]Cu/well of 3[H] (Amersham) was added for additional culture of to 18 h at 37° C. In the last step, plates were harvested and the radioactive counts were measured in a □ counter. • 1. DC indirect presentation: In the first method, 100 µl of 2×10^6 thawed PBL were placed in U-shape Bottom 96 well plate (Nunc) with RPMI medium supplemented with 5% H AB serum, L-Glutamine, Sodium Pyruvate, MEM-EAGLE non-essential amino-acids, HEPES and Gentamycin. At the next stage 100 µl of 25×10^4 peptide-pulsed DC were added to each three wells of PBL and underwent proliferation analysis as described above. • 2. PBL direct presentation: In the 2nd method, 100 µl of 2×10^6 PBL were placed in Flat Bottom 96 well plates (Corning) and stimulated with different concentrations (0.05 ug/ml-2 ug/ml) of peptides. In the next step the cells underwent proliferation analysis as described above. • 3. PBMC direct presentation: In third method PNMC were used under similar conditions as described for the second method.
In the first set of experiments, the 21mer ImMucin, its different 9mer epitopes and other control epitopes (Table 3) were evaluated in proliferation assays with the aim of finding their optimal mode of presentation, stimulated dose as well as their peak of activity (time wise).
To evaluate the most efficient method for priming of PBLs with the different peptides, the following methods were compared:
a. In-direct presentation of the peptide via Autologues-pulsed DC
Five experiments were performed according to the protocol described in material and methods with buffy-coat enriched PBLs obtained from six different naive donors (obtained from the Israeli blood bank).

[3] = test system: T-Cell specific subpopulation (Clones); assay: ELISA of cytokine secretion by the T-cell specific subpopulation (clones) stimulated with peptides; conditions: two experiments, four donors
From the text: (§5) Thawed PBLs underwent 1st stimulation with ImMucin pulsed Autologues DC at a ratio of 20:1 and cultured for 7 days in dedicated T cell Medium. T cell medium contained RPMI medium supplemented with 10% FCS, L-Glutamine, Sodium Pyruvate, MEM-EAGLE non-essential amino-acids, HEPES and Gentamycin Sulphate (Bet-Haemek Industries, IL) as well as with 50 IU/ml of recombinant IL-7 (Cytolab IL). For the second stimulation, PBL were transferred to adherent autologues ImMucin-pulsed PBMC and cultured for additional 5 days in T cell Medium. At the end of the 5 days, medium was partial replaced with fresh medium containing 1 ug/ml of ImMucin and 50 IU/ml IL-2 for a third stimulation of 48 h at 37° C. Following the last stimulation ImMucin T cell line was checked for immune activation properties.
as §2, §3, §4
For that purpose, an enriched ImMucin-specific T cell subpopulation was produced via repeated stimulation with ImMucin. The specificity of the subpopulation for ImMucin, as well as to the other VXL epitopes, was examined using proliferation assays, cytokine release assays, FACS analysis in which the percentage and type of cells enriched during the enrichment process was analyzed, and using a CTL assay against selected target cells.
For producing the specific T cell subpopulation PBL were stimulated three times for 7, 5 and 2 days with ImMucin presented via DC and PBMC. Following the 3rd stimulation the cells were evaluated against the different VXL epitopes.

[4] = test system: PBLs (CD4+, CD8+, CD45RO+ T cells); assay: FACS analysis of T cell phenotype during repeated stimulation with ImMucin (FIG. 2)
From the text: as §5
For FACS analysis, PBLs were suspended at a final concentration of 20×10^6 and 50 µl were transfer into FACS tube (Falcon) in Blocker solution (PBS with 3% FCS and 0.1% Sodium Azide). 10 µl of fluorochrome-conjugate anti-CD4, anti-CD8, and anti-CD45RO (eBioscience) were added for 30 min on ice at 0° C. in the Dark. After the incubation cell were washed with 2 ml of the blocker solution and re suspended in 0.5 ml of Phosphate buffer saline (PBS). Samples were analyzed in a FACS-sort machine (BD) for positive florescence.
The ability of ImMucin to propagate a subpopulation of CD4^+ and CD8^+ T cells was further analyzed, and in particular the ability of ImMucin to transform naive CD4^+ and CD8^+ T cells into memory cells. This property was evaluated in a FACS analysis measuring the CD45RO^+ marker for memory T cells on CD4^+ and CD8^+ subpopulations (FIG. 2).

[5] = peptide DC ratio 16:1, one out of five experiments, six donors
[6] = peptide pulsed DC ratio 16:1, one out of two experiments, two donors (Table 12)

MTPGTQSPFFLLLLLTVLTVV [ImMucin]
IL-2 (PBL [1]; [5]): 3.62 ng/mL
TNF-Alfa (PBL [1]; [5]): 11.6 ng/mL
IFN-gamma (PBL [1]; [6]): 0.5 ng/mL
TNF-Alfa (PBL [1]; [6]): 11.6 ng/mL
PBL Index of stimulation (SI) via DC (PBL [2]; naive donors, CPM sample / CPM control, representative of 5 experiments): 4
IS (SI of the peptides as indicated in Table 7) (PBL [2]; one out of five experiments, six donors): 4
Optimal dose via DC (PBL [2]; optimal dose required for PBL activation, average of 5 experiments, six donors): 12.5-25 × × 10e6/well
IS (as indicated in Table 12) (PBL [2]; two donors): 2.8
Peak of Proliferation (Hours) via DC (PBL [2]; visual inspection by light microscopy daily during 5 days, average of 5 experiments): 96 h
IL-2 % of clones [3]: 83%
INF-gamma % of clones [3]: 90%
TNF-Alfa % of clones [3]: 90%
TNF-Alfa Range [3]: 2.7 to 8.9 ng/mL
increase in percentage of memory CD45RO+ cells ([4]; ImMucin activation): two fold
percentage of CD8+ T cells ([4]; after repeated stimulation with ImMucin, from 15% before): 36%
percentage of CD4+ T cells ([4]; after repeated stimulation with ImMucin, from 43% before): 85%
